From the supplement of paper PMC8566230
± gives the standard deviation of the averaged measurements.

Experiments:
Experiment in all cases: cell viability with growth factor relative to same drug with BSA mock; higher = growth factor protects cells from drug (more viable cells)
Settings in all cases: treatment time: 6 days
SK-N-BE = system: SK-N-BE
Procedure: (§1)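 Six neuroblastoma cell lines were treated with a kinase inhibitor or vincristine at a fixed dose (70–90% lethal) plus a growth factor (100 ng/ml) or 0.1% BSA mock for 72 h. Drugs and growth factors were then renewed for another 72 h (6 days total). Viability was read by XTT in triplicate and normalised to the same drug plus BSA (=100%).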

SK-N-SH = system: SK-N-SH
Procedure: as §1

SK-N-AS = system: SK-N-AS
Procedure: as §1

LAN-1 = system: LAN-1
Procedure: as §1

Kelly = system: Kelly
Procedure: as §1

SH-SY5Y = system: SH-SY5Y
Procedure: as §1

COc1cc2nccc(Oc3ccc(NC(=O)C4(C(=O)Nc5ccc(F)cc5)CC4)cc3)c2cc1OC [cabozantinib]
cell viability with growth factor [%]
Settings	added growth factor (100 ng/ml): BDNF	added growth factor (100 ng/ml): EPO	added growth factor (100 ng/ml): HGF	added growth factor (100 ng/ml): IGF-1	added growth factor (100 ng/ml): NGF	added growth factor (100 ng/ml): SCF
Kelly, drug concentration: 5 uM	109 ± 1.2	118 ± 3.6	84.5 ± 11	73 ± 30	133 ± 21	101 ± 8.5
LAN-1, drug concentration: 5 uM	125 ± 8.8	160 ± 35	168 ± 11	123 ± 11	161 ± 27	93.5 ± 13
SH-SY5Y, drug concentration: 2.5 uM	114 ± 22	127 ± 21	151 ± 9.4	139 ± 33	183 ± 25	81.1 ± 16
SK-N-AS, drug concentration: 7.5 uM	124 ± 15	99 ± 3.2	108 ± 12	84.9 ± 18	95.9 ± 3.2	96.9 ± 10
SK-N-BE, drug concentration: 7.5 uM	278 ± 42	200 ± 25	248 ± 48	316 ± 30	191 ± 8.9	251 ± 44
SK-N-SH, drug concentration: 5 uM	153 ± 14	110.1 ± 0.79	94.5 ± 8.7	59.6 ± 6.7	153 ± 3.5	124 ± 13

Cc1ccc(NC(=O)c2ccc(CN3CCN(C)CC3)cc2)cc1Nc1nccc(-c2cccnc2)n1 [imatinib]
cell viability with growth factor [%]
Settings	added growth factor (100 ng/ml): BDNF	added growth factor (100 ng/ml): EPO	added growth factor (100 ng/ml): HGF	added growth factor (100 ng/ml): IGF-1	added growth factor (100 ng/ml): NGF	added growth factor (100 ng/ml): SCF
Kelly, drug concentration: 25 uM	165 ± 36	184 ± 21	167 ± 46	145 ± 15	125 ± 3.2	134 ± 11
LAN-1, drug concentration: 20 uM	101 ± 4.4	121 ± 7.4	86.4 ± 27	117 ± 5.8	135 ± 18	99.4 ± 9.5
SH-SY5Y, drug concentration: 25 uM	94.8 ± 19	166 ± 25	106 ± 12	99.5 ± 3.6	207 ± 39	111 ± 7.6
SK-N-AS, drug concentration: 20 uM	104 ± 18	103 ± 22	123 ± 46	134 ± 24	111 ± 5.8	112 ± 19
SK-N-BE, drug concentration: 25 uM	103 ± 11	217 ± 32	103 ± 17	124 ± 5.7	179 ± 16	76.9 ± 2.5
SK-N-SH, drug concentration: 25 uM	106 ± 16	121 ± 10	143 ± 32	110 ± 36	110 ± 15	98.2 ± 18

CC[C@]1(O)C[C@H]2CN(CCc3c([nH]c4ccccc34)[C@@](C(=O)OC)(c3cc4c(cc3OC)N(C=O)[C@H]3[C@@](O)(C(=O)OC)[C@H](OC(C)=O)[C@]5(CC)C=CCN6CC[C@]43[C@@H]65)C2)C1 [vincristine]
cell viability with growth factor [%]
Settings	added growth factor (100 ng/ml): BDNF	added growth factor (100 ng/ml): EPO	added growth factor (100 ng/ml): HGF	added growth factor (100 ng/ml): IGF-1	added growth factor (100 ng/ml): NGF	added growth factor (100 ng/ml): SCF
Kelly, drug concentration: 5 nM	86.8 ± 27	89.5 ± 19	95.4 ± 11	200 ± 22	70.2 ± 8	99.2 ± 12
LAN-1, drug concentration: 5 nM	84.5 ± 2.9	151 ± 11	116 ± 17	99.3 ± 29	92.4 ± 13	116 ± 28
SH-SY5Y, drug concentration: 25 nM	110 ± 12	149 ± 18	108 ± 23	110 ± 20	208 ± 19	97.4 ± 16
SK-N-AS, drug concentration: 5 nM	95 ± 8.7	78.5 ± 19	124 ± 7.1	219 ± 6.4	88.2 ± 6.7	97.3 ± 13
SK-N-BE, drug concentration: 20 nM	98 ± 21	171 ± 42	97.5 ± 6	116 ± 24	137 ± 5.2	128 ± 12
SK-N-SH, drug concentration: 5 nM	98 ± 4.7	152 ± 6.7	97.7 ± 12	142 ± 9.5	129 ± 13	88.1 ± 8.1
